Assays:
[1] = system: P388 leukaemic spleen colony-forming-units(LCFU-S); test: Mouse spleen-colony assay (P388 leukaemia, femoral marrow LCFU-S); type: in vivo, male DBA/2 mice; conditions: 8 u/kg/day for 6 days (Day 1-6); 10^6 P388 cells i.v. on Day 0; osmotic minipump vs daily i.p. bolus; groups of 5 mice
Source text: MATERIALS AND METHODS Mice.-6-8-week-old male DBA/2 mice weighing 20-25 g were purchased from the Jackson Laboratory, Bar Harbor, Maine. They were maintained on normal laboratory chow and acid water ad. lib. Mouse leukaemia.-P388 lymphocytic leu- kaemia was supplied by Dr Daniel Griswold, Southern Research Institute, Birmingham, Alabama, and serially transplanted as ain ascites tumour at weekly intervals ([…] every 7 days in McCoy's 5a medium. Gibco, Grant Island, NY). […] Ill addition to an un- treated control group, 5 animals were implanted with minipumps containing 0.900 NaCl. Seven days after cell injection, the mice of the untreated control and treated groups were killed, femurs isolated, and marrow cells washed out with McCoy's 5a medium. Appro- priate dilutions of the leukaemic femoral marrow cells were injected i.v. into groups of 10 DBA/2 mice. Eight days later, the recipient mice were killed, spleens removed and fixed in Bouin's solution. The number of surface nacroscopic, leukaemic colony-forming units (LCFU-S) were counted with a dissecting microscope, and the fraction of surviving LCFU per femur determined. Pharmacokinetic studies.-On Day 0, 106 P388 ascites cells were injected i.v. into groups of 30 DBA/2 mice. […] For the C.i.p. group, blood samples from at least 3 mice were col- lected in heparinized tubes by heart puncture every day for 6 days. […]

[2] = Source text: MATERIALS AND METHODS Mice.-6-8-week-old male DBA/2 mice weighing 20-25 g were purchased from the Jackson Laboratory, Bar Harbor, Maine. They were maintained on normal laboratory chow and acid water ad. lib. Mouse leukaemia.-P388 lymphocytic leu- kaemia was supplied by Dr Daniel Griswold, Southern Research Institute, Birmingham, Alabama, and serially transplanted as ain ascites tumour at weekly intervals ([…] every 7 days in McCoy's 5a medium. Gibco, Grant Island, NY). […] Ill addition to an un- treated control group, 5 animals were implanted with minipumps containing 0.900 NaCl. Seven days after cell injection, the mice of the untreated control and treated groups were killed, femurs isolated, and marrow cells washed out with McCoy's 5a medium. Appro- priate dilutions of the leukaemic femoral marrow cells were injected i.v. into groups of 10 DBA/2 mice. Eight days later, the recipient mice were killed, spleens removed and fixed in Bouin's solution. The number of surface nacroscopic, leukaemic colony-forming units (LCFU-S) were counted with a dissecting microscope, and the fraction of surviving LCFU per femur determined. Pharmacokinetic studies.-On Day 0, 106 P388 ascites cells were injected i.v. into groups of 30 DBA/2 mice. […] For the C.i.p. group, blood samples from at least 3 mice were col- lected in heparinized tubes by heart puncture every day for 6 days. […] At least 3 mice were killed at each sampling time. Blood samples were centrifuged at 2,000 rev/min and 4?C for 10 min and the plasmas separated and immediately stored at -20?C. […] Data analysis-Statistical analysis of the differences betwNeen LCFU dose-response (i.e., drug dose vs fraction of CFU surviving per femur) curves for the two different treat- ments used the analysis of covariance method (Snedecor & Cochran, 1979). […] I. Intravenous administration. Cancer Chemother. Pharmacol., 1, 177. […] II. Intra- cavitary administration. Cancer Chemother. Pharmacol., 2, 127. BAKER, L. H., OPIPARI, M. I., WILSON, H., BOTTOMLEY, R. & COLTMAN, C. A., JR. […] Obstet. Gynecol., 52, 146. BARRANCO, S. C. […] Ed. Carter, Crooke & Umezawa. New York: Academic Press. p. […] Cancer Res., 36, 1418. MELLETT, L. B. (1973) Considerations in design of optimal therapeutic schedules, Pharmacology and the Future of Man. In Problems of Therapy, Vol. 3. Ed. Okita & Acheson. Basel: S. Karger. p. 332. METZLER, C. M. (1969) Technical Report 7292/69/ 7292/005. […] Proc. AACR and ASCO, 20, 202. […] Eds. Carter, Crooke & Umezawa. New York: Academic Press. p. 117. […] Cancer Treat. Rep., 62, 2011. SKIPPER, H. E., SCHABEL, F. M., JR & WILCOX, W. S. (1967) Experimental evaluation of potential anticancer agents. XXI. Scheduling of arabinosyl cytosine to take advantage of its S-phase speci- ficity against leukaemia cells. Cancer Chemother Rep., 51, 125. […]
[3] = Bleomycin stability in the Alzet osmotic minipump; conditions: in 0.9% NaCl, 37 C, for at least 6 days (determined for 7 days in saline)

Substance: bleomycin
- greater reduction of LCFU-S by continuous i.p. infusion than by intermittent i.p. bolus at identical dose [1]: 0.5 log
- period during which plasma concentrations greater than 0.6 mu/ml are maintained ([2]; after continuous i.p. infusion (C.i.p.), 8 u/kg/day): about 6 days
- period during which bleomycin plasma concentration remains above 0.6 mu/ml ([2]; after intermittent i.p. bolus (I.i.p.) administration, 8 u/kg/day): about 92 min
- constant bleomycin plasma level ([2]; continuous i.p. infusion (osmotic minipump), 8 u/kg/day for 6 days, P388-bearing mice, radioimmunoassay, pooled plasma of groups of 3 mice, daily samples): 0.62 +/- 0.03 mu/ml
- peak bleomycin plasma level ([2]; intermittent i.p. bolus, 8 u/kg/day, at 5 min after the dose, Day 5, radioimmunoassay): 32 mu/ml
- stability inside the osmotic minipump [3]: 100%
